Results from patent publication US20250257055A1, “TERTIARY AMIDE DERIVATIVES SUBSTITUTED WITH 4-MEMBERED RING STRUCTURE” (Sumitomo Pharma Co., Ltd., priority 2024, published 2025).
Read-outs that look alike come from different tables or passages of the source. Blank lines part the entries; values can stand above or below the compound they belong to.

Columns and labels:
[1] = Membrane permeability test (PAMPA); format: in vitro ADME
Experimental: The membrane permeability of the test compound was tested by parallel artificial membrane permeability assay (PAMPA) as follows. 200 μL of System solution (pION Inc.) containing the test compound and 4 μL of GIT Lipid-0 (pION Inc.) were added to the donor plate. 200 μL of Acceptor Sink Buffer (pION Inc.) was added to the acceptor plate. Both plates were overlapped and incubated at 37° C. for 4 hours, after which the UV of the solutions on the acceptor side and donor side was measured using a UV plate reader (190-500 nm). Compounds with poor UV absorption were measured using LC-MS. The permeability coefficient Pe (10^−6 cm/sec) of the drug was calculated using the following equation.

[2] = tested on: G-401 cells; test: Cell proliferation inhibition experiment using G-401 cells; format: cell-based; conditions: Homo sapiens, 72 h, cultured for 3 days, CellTiter-Glo
Experimental: G-401 cells (derived from malignant rhabdoid tumor) were obtained from the American Type Culture Collection (ATCC). G-401 cells were cultured in McCoy's 5A medium containing 10% fetal bovine serum and 1% penicillin/streptomycin under conditions of 37° C. and 5% CO2.
500 cells per well were seeded in a 384-well plate. One day after seeding, Examples 1 to 35 were added so that the final concentration of DMSO was 0.1%, and the cells were cultured for 3 days. After the culture was completed, the cell viability was measured using CellTiter-Glo Luminescent Cell Viability Assay (Promega, G7570).

[3] = biological target: recombinant p300 (Homo sapiens (Human), UniProt Q09472); test: HAT activity inhibition experiment (SensoLyte HAT(p300) Assay Kit); format: biochemical; conditions: recombinant p300, histone H3 peptide, acetyl CoA
Sequence of recombinant p300 (Q09472 whole entry): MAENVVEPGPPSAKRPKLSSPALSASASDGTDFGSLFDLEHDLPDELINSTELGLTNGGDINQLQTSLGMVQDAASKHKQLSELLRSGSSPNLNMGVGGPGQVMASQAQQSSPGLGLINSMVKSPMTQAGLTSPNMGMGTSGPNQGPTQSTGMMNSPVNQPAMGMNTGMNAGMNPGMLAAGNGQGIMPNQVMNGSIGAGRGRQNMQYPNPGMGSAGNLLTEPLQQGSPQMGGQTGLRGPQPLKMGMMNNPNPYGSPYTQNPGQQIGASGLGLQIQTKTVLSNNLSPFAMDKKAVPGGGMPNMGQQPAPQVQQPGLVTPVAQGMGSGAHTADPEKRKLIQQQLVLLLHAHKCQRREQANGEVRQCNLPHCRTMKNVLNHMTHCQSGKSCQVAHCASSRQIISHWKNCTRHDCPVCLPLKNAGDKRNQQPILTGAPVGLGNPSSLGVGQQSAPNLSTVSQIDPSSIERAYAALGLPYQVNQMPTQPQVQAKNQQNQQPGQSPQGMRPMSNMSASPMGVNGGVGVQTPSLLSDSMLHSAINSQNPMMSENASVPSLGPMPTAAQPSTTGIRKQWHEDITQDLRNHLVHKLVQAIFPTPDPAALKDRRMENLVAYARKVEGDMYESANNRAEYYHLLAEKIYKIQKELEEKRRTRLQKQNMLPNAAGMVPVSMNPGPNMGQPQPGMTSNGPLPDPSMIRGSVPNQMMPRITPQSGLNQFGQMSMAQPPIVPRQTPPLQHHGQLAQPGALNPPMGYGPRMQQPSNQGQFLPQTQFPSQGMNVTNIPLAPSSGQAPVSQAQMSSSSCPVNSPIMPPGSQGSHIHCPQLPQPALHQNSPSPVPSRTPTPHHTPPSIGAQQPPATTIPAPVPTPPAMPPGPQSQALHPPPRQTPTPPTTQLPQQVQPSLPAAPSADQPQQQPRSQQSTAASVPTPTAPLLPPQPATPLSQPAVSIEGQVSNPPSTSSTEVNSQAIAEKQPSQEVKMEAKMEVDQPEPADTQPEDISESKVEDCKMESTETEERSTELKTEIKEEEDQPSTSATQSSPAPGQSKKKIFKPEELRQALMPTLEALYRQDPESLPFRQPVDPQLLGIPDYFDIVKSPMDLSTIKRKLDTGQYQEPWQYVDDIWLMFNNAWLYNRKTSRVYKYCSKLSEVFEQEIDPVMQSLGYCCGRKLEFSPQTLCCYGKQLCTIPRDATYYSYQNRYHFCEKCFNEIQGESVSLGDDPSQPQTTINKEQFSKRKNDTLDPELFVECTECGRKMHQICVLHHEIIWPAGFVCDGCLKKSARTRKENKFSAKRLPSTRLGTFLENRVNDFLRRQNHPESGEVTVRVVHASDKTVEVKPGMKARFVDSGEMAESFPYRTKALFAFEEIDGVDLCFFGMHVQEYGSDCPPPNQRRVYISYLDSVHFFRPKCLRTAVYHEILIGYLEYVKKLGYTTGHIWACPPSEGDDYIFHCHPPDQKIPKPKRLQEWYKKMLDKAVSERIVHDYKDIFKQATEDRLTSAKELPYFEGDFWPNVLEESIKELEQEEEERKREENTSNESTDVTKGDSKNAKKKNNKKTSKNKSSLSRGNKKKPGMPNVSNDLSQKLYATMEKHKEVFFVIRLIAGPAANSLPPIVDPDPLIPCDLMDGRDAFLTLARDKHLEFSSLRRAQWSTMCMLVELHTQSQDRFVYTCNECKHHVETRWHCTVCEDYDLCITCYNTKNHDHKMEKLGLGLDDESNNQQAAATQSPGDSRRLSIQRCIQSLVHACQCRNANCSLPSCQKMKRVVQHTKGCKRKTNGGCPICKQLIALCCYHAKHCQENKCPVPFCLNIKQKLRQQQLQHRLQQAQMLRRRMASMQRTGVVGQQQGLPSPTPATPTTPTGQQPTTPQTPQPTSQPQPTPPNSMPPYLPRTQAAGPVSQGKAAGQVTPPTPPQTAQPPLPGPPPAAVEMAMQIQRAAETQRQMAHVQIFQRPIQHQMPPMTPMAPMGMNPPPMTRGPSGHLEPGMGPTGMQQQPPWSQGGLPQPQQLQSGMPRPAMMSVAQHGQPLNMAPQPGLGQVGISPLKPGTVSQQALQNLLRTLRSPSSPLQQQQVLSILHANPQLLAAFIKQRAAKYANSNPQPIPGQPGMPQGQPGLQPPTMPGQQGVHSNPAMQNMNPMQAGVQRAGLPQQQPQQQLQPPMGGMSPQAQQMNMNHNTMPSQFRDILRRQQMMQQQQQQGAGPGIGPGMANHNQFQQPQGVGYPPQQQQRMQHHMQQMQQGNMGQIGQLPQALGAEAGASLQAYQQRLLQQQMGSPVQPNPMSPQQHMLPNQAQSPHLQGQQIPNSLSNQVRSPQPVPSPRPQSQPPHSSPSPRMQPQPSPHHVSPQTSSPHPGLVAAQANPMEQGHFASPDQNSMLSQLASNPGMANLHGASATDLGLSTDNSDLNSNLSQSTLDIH
Experimental: The HAT activity inhibitory ability of HAT inhibitors was evaluated using SensoLyte HAT(p300) Assay Kit (ANASPEC, AS-72172). Specifically, 7.5 μL of the compound of Examples […] diluted with assay buffer was added to 7.5 μL of recombinant p300 solution diluted 10 times with assay buffer, and the mixture was incubated at room temperature for 10 minutes. 7.5 μL of acetyl CoA solution diluted 10 times with assay buffer and 15 μL of histone H3 peptide diluted 10 times with assay buffer were added thereto, and the mixture was incubated at 37° C. for 30 minutes. 37.5 μL of Stop Solution was added to stop the reaction. 75 μL of p300 Developer solution diluted 50 times with assay buffer was added, and the mixture was incubated at room temperature for 30 minutes under light-shielded conditions. The fluorescence at 513 nm when irradiated with 389 nm excitation light was measured using a multiplate reader.

[4] = pH 5.0, 37° C., read-out: pH 5.0 Pe
[5] = pH 7.4, 37° C., read-out: pH 7.4 Pe

Papp at 4 h [1, 4]: 28.6 ×10⁻⁶ cm/s
Papp at 4 h [1, 5]: 31.8 ×10⁻⁶ cm/s
IC50 [3]: 58.2 nM
SMILES: CN1CC(N(Cc2ccc(F)cc2)C(=O)CN2C(=O)N[C@]3(CCc4cc(-c5cn(C)nc5F)ccc43)C2=O)(C(F)(F)F)C1 [Example 18, 2-[(1′S)-5′-(3-fluoro-1-methyl-1H-pyrazol-4-yl)-2,5-dioxo-2′,3′-dihydrospiro[imidazolidine-4,1′-inden]-1-yl]-N-[(4-fluorophenyl)methyl]-N-[1-methyl-3-(trifluoromethyl)azetidin-3-yl]acetamide]
IC50 [2]: 292 nM

Papp at 4 h [1, 4]: 24.4 ×10⁻⁶ cm/s
Papp at 4 h [1, 5]: 28.9 ×10⁻⁶ cm/s
IC50 [3]: 7.2 nM
SMILES: CN1CC(N(Cc2ccc(F)cc2)C(=O)CN2C(=O)N[C@]3(C[C@@H](F)c4cc(-c5cnn(C6CCOCC6)c5)ccc43)C2=O)(C(F)(F)F)C1 [Example 19, 2-{(1′S,3′R)-3′-fluoro-5′-[1-(oxan-4-yl)-1H-pyrazol-4-yl]-2,5-dioxo-2′,3′-dihydrospiro[imidazolidine-4,1′-inden]-1-yl}-N-[(4-fluorophenyl)methyl]-N-[1-methyl-3-(trifluoromethyl)azetidin-3-yl]acetamide]
IC50 [2]: 24 nM

Papp at 4 h [1, 4]: 6.2 ×10⁻⁶ cm/s
Papp at 4 h [1, 5]: 21.2 ×10⁻⁶ cm/s
IC50 [3]: 52 nM
SMILES: CN1CC(N(Cc2ccc(F)cn2)C(=O)CN2C(=O)N[C@]3(CCc4cc(-c5cnn(C)c5)ccc43)C2=O)(C(F)(F)F)C1 [Example 21, N-[(5-fluoropyridin-2-yl)methyl]-2-[(1′S)-5′-(1-methyl-1H-pyrazol-4-yl)-2,5-dioxo-2′,3′-dihydrospiro[imidazolidine-4,1′-inden]-1-yl]-N-[1-methyl-3-(trifluoromethyl)azetidin-3-yl]acetamide]
IC50 [2]: 353 nM

Papp at 4 h [1, 4]: 21.2 ×10⁻⁶ cm/s
Papp at 4 h [1, 5]: 23 ×10⁻⁶ cm/s
IC50 [3]: 11 nM
SMILES: CN(C)C1(Cn2cc(-c3ccc4c(c3)[C@H](F)C[C@]43NC(=O)N(CC(=O)N(Cc4ccc(F)cc4)C4(C(F)(F)F)COC4)C3=O)cn2)COC1 [Example 22, 2-[(1′S,3′R)-5′-(1-{[3-(dimethylamino)oxetan-3-yl]methyl}-1H-pyrazol-4-yl)-3′-fluoro-2,5-dioxo-2′,3′-dihydrospiro[imidazolidine-4,1′-inden]-1-yl]-N-[(4-fluorophenyl)methyl]-N-[3-(trifluoromethyl)oxetan-3-yl]acetamide]
IC50 [2]: 68 nM

Papp at 4 h [1, 4]: 10.2 ×10⁻⁶ cm/s
Papp at 4 h [1, 5]: 16.3 ×10⁻⁶ cm/s
IC50 [3]: 9.2 nM
SMILES: CN1CC(N(Cc2ccc(F)cn2)C(=O)CN2C(=O)N[C@]3(C[C@@H](F)c4cc(-c5cnn(C(C)(C)C#N)c5)ccc43)C2=O)(C(F)(F)F)C1 [Example 26, 2-{(1′S,3′R)-5′-[1-(2-cyanopropan-2-yl)-1H-pyrazol-4-yl]-3′-fluoro-2,5-dioxo-2′,3′-dihydrospiro[imidazolidine-4,1′-inden]-1-yl}-N-[(5-fluoropyridin-2-yl)methyl]-N-[1-methyl-3-(trifluoromethyl)azetidin-3-yl]acetamide]
IC50 [2]: 14 nM

Papp at 4 h [1, 4]: 0.6 ×10⁻⁶ cm/s
Papp at 4 h [1, 5]: 3.5 ×10⁻⁶ cm/s
IC50 [3]: 6.8 nM
SMILES: CN1CC(N(Cc2ccc(F)cn2)C(=O)CN2C(=O)N[C@]3(C[C@@H](F)c4cc(-c5cnn(C(C)(C)CO)c5)ccc43)C2=O)(C(F)(F)F)C1 [Example 27, 2-{(1′S,3′R)-3′-fluoro-5′-[1-(1-hydroxy-2-methylpropan-2-yl)-1H-pyrazol-4-yl]-2,5-dioxo-2′,3′-dihydrospiro[imidazolidine-4,1′-inden]-1-yl}-N-[(5-fluoropyridin-2-yl)methyl]-N-[1-methyl-3-(trifluoromethyl)azetidin-3-yl]acetamide]
IC50 [2]: 22 nM

Papp at 4 h [1, 4]: 25.7 ×10⁻⁶ cm/s
Papp at 4 h [1, 5]: 30 ×10⁻⁶ cm/s
SMILES: CN1CC(N(Cc2ccc(F)cc2)C(=O)CN2C(=O)N[C@@]3(C[C@H](F)c4cc(-c5cnn(C)c5)c(F)cc43)C2=O)(C(F)(F)F)C1 [Example 28, 2-[(1′R,3'S)-3′,6′-difluoro-5′-(1-methyl-1H-pyrazol-4-yl)-2,5-dioxo-2′,3′-dihydrospiro[imidazolidine-4,1′-inden]-1-yl]-N-[(4-fluorophenyl)methyl]-N-[1-methyl-3-(trifluoromethyl)azetidin-3-yl]acetamide]

Second part, the compound before the results:

SMILES: CN1CC(F)(Cn2cc(-c3ccc4c(c3)CC[C@]43NC(=O)N(CC(=O)N(Cc4ccc(F)cc4)C4(C(F)(F)F)COC4)C3=O)cn2)C1 [Example 2, 2-[(1′S)-5′-{1-[(3-fluoro-1-methylazetidin-3-yl)methyl]-1H-pyrazol-4-yl}-2,5-dioxo-2′,3′-dihydrospiro[imidazolidine-4,1′-inden]-1-yl]-N-[(4-fluorophenyl)methyl]-N-[3-(trifluoromethyl)oxetan-3-yl]acetamide]
Papp at 4 h [1, 4]: 7.4 ×10⁻⁶ cm/s
Papp at 4 h [1, 5]: 19 ×10⁻⁶ cm/s
IC50 [2]: 89 nM
IC50 [3]: 19 nM

SMILES: O=C1N[C@]2(CCc3cc(-c4cnn(C5CN(C6COC6)C5)c4)ccc32)C(=O)N1CC(=O)N(Cc1ccc(F)cn1)C1(C(F)(F)F)COC1 [Example 6, N-[(5-fluoropyridin-2-yl)methyl]-2-[(1′S)-5′-{1-[1-(oxetan-3-yl)azetidin-3-yl]-1H-pyrazol-4-yl}-2,5-dioxo-2′,3′-dihydrospiro[imidazolidine-4,1′-inden]-1-yl]-N-[3-(trifluoromethyl)oxetan-3-yl]acetamide]
Papp at 4 h [1, 4]: 3.1 ×10⁻⁶ cm/s
Papp at 4 h [1, 5]: 5.5 ×10⁻⁶ cm/s
IC50 [2]: 391 nM
IC50 [3]: 19.8 nM

SMILES: O=C1N[C@]2(CCc3cc(-c4cnn(C5CN(C6COC6)C5)c4)ccc32)C(=O)N1CC(=O)N(Cc1ccc(F)cn1)C1(C(F)(F)F)CC(F)(F)C1 [Example 8, N-[3,3-difluoro-1-(trifluoromethyl)cyclobutyl]-N-[(5-fluoropyridin-2-yl)methyl]-2-[(1′S)-5′-{1-[1-(oxetan-3-yl)azetidin-3-yl]-1H-pyrazol-4-yl}-2,5-dioxo-2′,3′-dihydrospiro[imidazolidine-4,1′-inden]-1-yl]acetamide]
Papp at 4 h [1, 4]: 13.5 ×10⁻⁶ cm/s
Papp at 4 h [1, 5]: 14.3 ×10⁻⁶ cm/s
IC50 [2]: 247 nM

SMILES: CN1CC(N(Cc2ccc(F)cc2)C(=O)CN2C(=O)N[C@]3(CCc4cc(-c5cnn(C(C)(C)C#N)c5)ccc43)C2=O)(C(F)(F)F)C1 [Example 13, 2-{(1′S)-5′-[1-(2-cyanopropan-2-yl)-1H-pyrazol-4-yl]-2,5-dioxo-2′,3′-dihydrospiro[imidazolidine-4,1′-inden]-1-yl}-N-[(4-fluorophenyl)methyl]-N-[1-methyl-3-(trifluoromethyl)azetidin-3-yl]acetamide]
Papp at 4 h [1, 4]: 26.2 ×10⁻⁶ cm/s
Papp at 4 h [1, 5]: 26.9 ×10⁻⁶ cm/s
IC50 [2]: 20 nM
IC50 [3]: 5.2 nM

SMILES: CN1CCn2ncc(-c3ccc4c(c3)[C@H](F)C[C@]43NC(=O)N(CC(=O)N(Cc4ccc(F)cc4)C4(C(F)(F)F)COC4)C3=O)c2C1 [Example 14, 2-[(1′S, 3′R)-3′-fluoro-5′-(5-methyl-4,5,6,7-tetrahydropyrazolo[1,5-a]pyrazin-3-yl)-2,5-dioxo-2′,3′-dihydrospiro[imidazolidine-4,1′-inden]-1-yl]-N-[(4-fluorophenyl)methyl]-N-[3-(trifluoromethyl)oxetan-3-yl]acetamide]
Papp at 4 h [1, 4]: 26.1 ×10⁻⁶ cm/s
Papp at 4 h [1, 5]: 27.9 ×10⁻⁶ cm/s
IC50 [2]: 677 nM
IC50 [3]: 124 nM

SMILES: CN1CC(N(Cc2ccc(F)cc2)C(=O)CN2C(=O)N[C@]3(C[C@@H](F)c4cc(-c5cnn(C)c5F)ccc43)C2=O)(C(F)(F)F)C1 [Example 15, 2-[(1′S,3′R)-3′-fluoro-5′-(5-fluoro-1-methyl-1H-pyrazol-4-yl)-2,5-dioxo-2′,3′-dihydrospiro[imidazolidine-4,1′-inden]-1-yl]-N-[(4-fluorophenyl)methyl]-N-[1-methyl-3-(trifluoromethyl)azetidin-3-yl]acetamide]
Papp at 4 h [1, 4]: 30 ×10⁻⁶ cm/s
Papp at 4 h [1, 5]: 33.3 ×10⁻⁶ cm/s
IC50 [2]: 33 nM
IC50 [3]: 6.1 nM

SMILES: CN1CC(N(Cc2ccc(F)cc2)C(=O)CN2C(=O)N[C@]3(CCc4cc(-c5cnn(C)c5F)ccc43)C2=O)(C(F)(F)F)C1 [Example 16, 2-[(1′S)-5′-(5-fluoro-1-methyl-1H-pyrazol-4-yl)-2,5-dioxo-2′,3′-dihydrospiro[imidazolidine-4,1′-inden]-1-yl]-N-[(4-fluorophenyl)methyl]-N-[1-methyl-3-(trifluoromethyl)azetidin-3-yl]acetamide]
Papp at 4 h [1, 4]: 29.2 ×10⁻⁶ cm/s
Papp at 4 h [1, 5]: 32 ×10⁻⁶ cm/s
IC50 [2]: 310 nM
IC50 [3]: 53.6 nM

SMILES: CN1CC(N(Cc2ccc(F)cc2)C(=O)CN2C(=O)N[C@]3(C[C@@H](F)c4cc(-c5cn(C)nc5F)ccc43)C2=O)(C(F)(F)F)C1 [Example 17, 2-[(1′S,3′R)-3′-fluoro-5′-(3-fluoro-1-methyl-1H-pyrazol-4-yl)-2,5-dioxo-2′,3′-dihydrospiro[imidazolidine-4,1′-inden]-1-yl]-N-[(4-fluorophenyl)methyl]-N-[1-methyl-3-(trifluoromethyl)azetidin-3-yl]acetamide]
Papp at 4 h [1, 4]: 28.1 ×10⁻⁶ cm/s
Papp at 4 h [1, 5]: 32.2 ×10⁻⁶ cm/s
IC50 [2]: 25 nM
IC50 [3]: 2.3 nM
